Source: US20220315534A1, “BETA ADRENERGIC AGONIST AND METHODS OF USING THE SAME” (Curasen Therapeutics, Inc., priority 2019, published 2022)
pEC50: −log10 of the molar value. Read-outs that look alike come from different tables or passages of the source.

Assays:
[1] = target: T1, β2-adrenergic receptor (B2-AR) (Homo sapiens, UniProt P07550); experiment: cAMP Gs dynamic HTRF assay, cells expressing β2-adrenergic receptor; assay type: cell-based; conditions: for EC50: read-out: Average pEC50 [Receptor subtype: B2-AR, Cell type: CHO-K1 (HitHunter)] (converted); for pEC50: Table 2, cAMP HTRF, read-out: β2 EC50
T1 construct: expressed in transfected cells
T1 sequence (P07550 whole entry): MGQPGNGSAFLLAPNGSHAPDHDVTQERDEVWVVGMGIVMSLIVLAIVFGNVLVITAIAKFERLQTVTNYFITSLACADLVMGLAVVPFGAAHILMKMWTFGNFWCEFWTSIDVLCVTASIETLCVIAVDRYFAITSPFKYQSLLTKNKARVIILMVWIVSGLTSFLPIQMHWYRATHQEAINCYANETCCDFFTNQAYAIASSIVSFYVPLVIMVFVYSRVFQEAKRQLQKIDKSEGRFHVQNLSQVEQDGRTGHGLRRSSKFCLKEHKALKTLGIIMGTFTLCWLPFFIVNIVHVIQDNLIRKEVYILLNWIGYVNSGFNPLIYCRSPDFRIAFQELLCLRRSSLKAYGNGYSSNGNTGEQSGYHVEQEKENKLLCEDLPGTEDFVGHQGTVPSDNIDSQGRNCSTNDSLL
Protocol: (§1) cAMP homogeneous time-resolved fluorescence (HTRF): experimental methods. Compound efficacy is determined using the cAMP Gs dynamic HTRF assay (Cisbio, catalog #62AM4PEC) largely following the manufacturer's instructions, also detailed below.
(§2) Standard serial dilution curves are 10-point, 5-fold dilutions starting from a highest concentration of 10 μM. […] Assay plates are centrifuged at 500×g for 10 seconds. Compounds and IBMX are prepared at 2× final dose to compensate for addition of cells.
(§3) Cell preparation: 1× stimulation buffer, washing PBS (Dulbecco's phosphate-buffered saline, —Mg —Ca; Caisson Labs, catalog #PBL01), assay PBS (Dulbecco's phosphate-buffered saline, +Mg, +Ca; Caisson Labs, catalog #PBL02) and Versene (0.02% EDTA disodium salt solution in PBS without calcium or magnesium; Caisson Labs, catalog #EDL01) are pre-warmed to 37° C. Cells expressing beta-adrenergic receptor were washed in washing PBS to remove growth medium and then released from the surface by incubating with Versene for 5-10 minutes at 37° C. Cells are harvested using assay PBS, counted manually by hemocytometer or by an automated cell counter, pelleted by centrifugation (200×g, 5 minutes) and resuspended in 37° C. 1× stimulation buffer to a final density of […]. 5 μL of the suspended cell solution (7500 cell total) are added to all wells of the 384 well assay plate, the assay plate was covered with an Axygen® plate seal (Corning PCR-SP) and incubated in a humidified 37° C. environment supplemented with 5% CO2 for 30 minutes.
(§4) HTRF reagent addition, reading and data analysis: After 30 minutes of cell stimulation with test compound, the assay plates are centrifuged at 500×g for 10 seconds, and incubation was stopped with the addition of 5 μL cAMP-D2 acceptor, diluted 1:21 in detection and lysis buffer 2 (Cisbio 62CL2FDF) was added to all cells. Subsequently, 5 μL Anti-cAMP-Eu Donor, diluted 1:21 in detection and lysis buffer 2, was added to cells. Plates were sealed and reactions gently ‘vortexed’ at 900 rpm on a Heidolph Titramax 1000 for at least 30 minutes at room temperature. Plates are centrifuged again at 500×g for 10 seconds, and HTRF was measured using a Tecan Spark plate reader at 50 flashes per well. […] Potency estimates (EC50 and pEC50) are derived from the four-parameter nonlinear regression of the concentration-effect curve and an estimate of relative efficacy is determined by comparing the magnitude of the test compound HTRF signal window (min-max dose) with the signal window of the full agonist control, isoproterenol.

[2] = target: T2, β1-adrenergic receptor (B1-AR) (Homo sapiens, UniProt P08588); experiment: cAMP Gs dynamic HTRF assay, cells expressing β1-adrenergic receptor; assay type: cell-based; conditions: for EC50: read-out: Average pEC50 [Receptor subtype: B1-AR, Cell type: CHO-K1 (HitHunter)] (converted); for pEC50: Table 2, cAMP HTRF, read-out: β1 EC50
T2 construct: expressed in transfected cells
T2 sequence (P08588 whole entry): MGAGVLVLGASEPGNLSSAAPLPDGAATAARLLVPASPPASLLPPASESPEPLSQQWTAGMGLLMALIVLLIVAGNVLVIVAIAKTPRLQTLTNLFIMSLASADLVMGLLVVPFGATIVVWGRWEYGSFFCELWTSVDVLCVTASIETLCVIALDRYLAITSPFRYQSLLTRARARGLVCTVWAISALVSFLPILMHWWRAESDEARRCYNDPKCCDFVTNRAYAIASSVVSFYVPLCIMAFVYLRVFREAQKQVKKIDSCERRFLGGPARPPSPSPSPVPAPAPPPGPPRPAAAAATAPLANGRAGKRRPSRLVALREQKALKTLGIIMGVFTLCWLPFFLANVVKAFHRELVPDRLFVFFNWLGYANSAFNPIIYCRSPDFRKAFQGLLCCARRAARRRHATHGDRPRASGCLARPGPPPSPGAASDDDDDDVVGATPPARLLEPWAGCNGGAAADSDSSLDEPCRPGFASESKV
Protocol: as §1, §2, §3, §4

Row | SMILES | EC50 ([1]; CHO-K1 (HitHunter) cells) [nM] | EC50 ([2]; CHO-K1 (HitHunter) cells) [nM] | also measured
1 | CC(C)(C)NC[C@H](O)c1cccc2[nH]ncc12 [Compound 04-153] | 10 to 100 | > 1000 | –
2 | CC(C)(C)NC[C@H](O)c1cc(F)cc2cccnc12 [Compound 04-76] | < 10 | < 10 | –
3 | Cc1ccnc2c([C@H](O)CNC(C)(C)C)cccc12 [Compound 04-83] | 100 to 1000 | 100 to 1000 | –
4 | CC(C)(C)NC[C@H](O)c1nccc2[nH]ncc12 [Compound 04-144, (S)-2-(tert-butylamino)-1-(1H-pyrazolo[4,3-c]pyridin-4-yl)ethan-1-ol] | > 1000 | > 1000 | –
5 | CC(C)(CO)NC[C@H](O)c1cccc2[nH]c(=O)ccc12 [Compound 04-141] | < 10 | 10 to 100 | –
6 | CC(C)(C)NC[C@H](O)c1ccc2[nH]c3ccccc3c2c1 [Compound 04-54] | 100 to 1000 | > 1000 | –
7 | COc1cc([C@@H](O)CNC(C)(C)C)c2cn[nH]c2c1 [Compound 04-154] | < 10 | 100 to 1000 | –
8 | CC(C)(C)NC[C@H](O)c1ccc2c(c1)C1(CC1)CN2 [Compound 04-123] | 100 to 1000 | > 1000 | –
9 | COc1ccc(C[C@@H](C)NC[C@H](O)c2ccc3c(n2)NCCO3)cc1 [Compound 04-12] | 10 to 100 | 100 to 1000 | –
10 | CC(C)(C)NC[C@H](O)c1ccc2ccc(C(F)(F)F)cc2n1 [Compound 04-36] | < 10 | < 10 | –
11 | CC(C)(C)NC[C@H](O)c1ccc2cccc(Cl)c2n1 [Compound 04-39] | < 10 | < 10 | –
12 | CC(C)(C)NC[C@H](O)c1cnc(N)c(Cl)c1 [Compound 02-1] | 10 to 100 | 100 to 1000 | pEC50 [1]: 7.00 to 8.00; pEC50 [2]: 6.00 to 7.00
13 | CC(C)(C)NC[C@H](O)c1ccc2ncccc2c1 [Compound 04-38] | < 10 | 100 to 1000 | –
14 | CC(C)(C)NC[C@@H](O)c1ccc2ccc(C(F)(F)F)cc2n1 [Compound 04-136] | 100 to 1000 | > 1000 | –
15 | CC(C)(C)NC[C@H](O)c1ccc2nn[nH]c2c1 [Compound 04-115] | 10 to 100 | 100 to 1000 | –
16 | Cc1ccnc2c([C@@H](O)CNC(C)(C)C)cccc12 [Compound 04-84] | 10 to 100 | < 10 | –
17 | CC(C)(C)NC[C@@H](O)c1ccc2cccc(F)c2n1 [Compound 04-42] | 100 to 1000 | 100 to 1000 | –
18 | Cc1nc2cc([C@@H](O)CNC(C)(C)C)ccc2[nH]1 [Compound 04-118] | > 1000 | > 1000 | –
19 | CC(C)(C)NC[C@H](O)c1ccc2cccc(F)c2n1 [Compound 04-41] | < 10 | < 10 | –
20 | CC(C)(C)NC[C@H](O)c1cccc2cn[nH]c12 [Compound 04-26] | 10 to 100 | 10 to 100 | –
21 | CC(C)(C)NC[C@@H](O)c1cccc(N)n1 [Compound 02-6] | 10 to 100 | 100 to 1000 | –
22 | CC1(NC[C@H](O)c2cc(F)cc3[nH]ncc23)CCC1 [Compound 04-148] | < 10 | < 10 | –
23 | CC(C)(C)NCC(O)c1ccnc2ccccc12 (stereo not drawn) [Compound 04-96] | 10 to 100 | 10 to 100 | –
24 | CC(C)(C)NC[C@@H](O)c1cccc2oc(=O)ccc12 [Compound 04-14] | < 10 | 100 to 1000 | –
25 | CC(C)(C)NC[C@H](O)c1ncc(O)c2ccccc12 [Compound 04-97] | > 1000 | > 1000 | –

Row | SMILES | EC50 ([1]; CHO-K1 (HitHunter) cells) [nM] | EC50 ([2]; CHO-K1 (HitHunter) cells) [nM] | also measured
26 | CC(C)(C)NC[C@@H](O)c1ccc(C(F)(F)F)c2cccnc12 [Compound 04-81] | 100 to 1000 | 100 to 1000 | –
27 | CC(C)(C)NCC(O)c1cccc2ccccc12 (stereo not drawn) [Compound 04-98] | 10 to 100 | < 10 | –
28 | CC(C)(C)NC[C@H](O)c1ccc2[nH]cnc2c1 [Compound 04-124] | < 10 | 10 to 100 | –
29 | CC(C)(C)NC[C@H](O)c1cccc2[nH]c(=O)oc12 [Compound 04-116] | < 10 | < 10 | –
30 | CC(C)(C)NC[C@H](O)c1ccc2cccc(C#N)c2n1 [Compound 04-135] | < 10 | < 10 | –
31 | CC(C)CNC[C@H](O)c1cccc2[nH]c(=O)ccc12 [Compound 04-143] | 10 to 100 | 10 to 100 | –
32 | CC(C)(C)NC[C@H](O)c1cccc2ccc(C(F)(F)F)nc12 [Compound 04-85] | < 10 | < 10 | –
33 | CC(C)CNC[C@H](O)c1ccc2nc[nH]c2c1 [Compound 04-140] | 100 to 1000 | > 1000 | –
34 | CC(C)(C)NC[C@@H](O)c1ccnc2[nH]ncc12 [Compound 04-126] | > 1000 | > 1000 | –
35 | CC(C)(C)NC[C@H](O)c1cccc2[nH]c3cccnc3c12 [Compound 04-119] | < 10 | < 10 | –
36 | Cc1c[nH]c2nccc([C@@H](O)CNC(C)(C)C)c12 [Compound 04-114] | > 1000 | > 1000 | –
37 | CC(C)(C)NC[C@H](O)c1cnc(N)c(C(F)(F)F)c1 [Compound 02-2] | – | – | Average pEC50 [Receptor subtype: B2-AR; Cell type: CHO-K1 (HitHunter)] ([1]; CHO-K1 (HitHunter) cells): D (D < 6); pEC50 [1]: < 6.00; Average pEC50 [Receptor subtype: B1-AR; Cell type: CHO-K1 (HitHunter)] ([2]; CHO-K1 (HitHunter) cells): D (D < 6); pEC50 [2]: < 6.00
38 | CC(C)(C)NC[C@@H](O)c1nccc2[nH]ncc12 [Compound 04-145, (R)-2-(tert-butylamino)-1-(1H-pyrazolo[4,3-c]pyridin-4-yl)ethan-1-ol] | > 1000 | > 1000 | –
39 | CC(C)(C)NC[C@H](O)c1cnc2[nH]cnc2c1 [Compound 04-157] | 10 to 100 | 100 to 1000 | –
40 | CC(C)(C)NC[C@H](O)c1cccc2c1OC(C)(C)C(=O)N2 [Compound 04-133] | < 10 | < 10 | –
41 | CC(C)(C)NC[C@H](O)c1c(F)ccc2cccnc12 [Compound 04-90] | > 1000 | 100 to 1000 | –
42 | CC(C)(C)NC[C@H](O)c1cccc2oc(=O)ccc12 [Compound 04-3] | 100 to 1000 | > 1000 | –
43 | CC1(NC[C@H](O)c2cc(F)cc3[nH]ncc23)CC1 [Compound 04-147] | < 10 | < 10 | –
44 | CC(C)NC[C@H](O)c1cccc2[nH]c(=O)ccc12 [Compound 04-152] | < 10 | < 10 | –
45 | Cc1ccc([C@@H](O)CNC(C)(C)C)c2cn[nH]c12 [Compound 04-130] | < 10 | < 10 | –
46 | CC(C)(C)NC[C@H](O)c1cc(Cl)c2[nH]cnc2c1 [Compound 04-117] | < 10 | 100 to 1000 | –
47 | CC(C)(C)NC[C@H](O)c1cccc2[nH]nc(F)c12 [Compound 04-113] | < 10 | < 10 | –
48 | Cc1noc2cccc([C@@H](O)CNC(C)(C)C)c12 [Compound 04-29] | > 1000 | 100 to 1000 | –
49 | Cc1c[nH]c2cccc([C@@H](O)CNC(C)(C)C)c12 [Compound 04-111] | > 1000 | > 1000 | –
